Legend:
[1] = Sub-acute toxicity in albino Wistar rat assessed as tremors at 1.25 to 10 mg/kg, po administered for 28 days; format: organism-based; conditions: in vivo, 672 h
[2] = Sub-acute toxicity in albino Wistar rat assessed as change in hemoglobin level at 10 mg/kg, po administered for 28 days measured post last dose (reference value: 12.14 +/- 1.45 g%); format: organism-based; conditions: in vivo, 672 h
[3] = Sub-acute toxicity in albino Wistar rat assessed as change in CAT level per mg protein at 10 mg/kg, po administered for 28 days measured post last dose (reference value: 28.45 +/- 2.1 U); format: organism-based; conditions: in vivo, 672 h
[4] = Sub-acute toxicity in albino Wistar rat assessed as change in CAT level per mg protein at 1.25 mg/kg, po administered for 28 days measured post last dose (reference value: 28.45 +/- 2.1 U); format: organism-based; conditions: in vivo, 672 h
[5] = Sub-acute toxicity in albino Wistar rat assessed as change in SOD level per mg protein at 1.25 mg/kg, po administered for 28 days measured post last dose (reference value: 4.85 +/- 0.34 U); format: organism-based; conditions: in vivo, 672 h
[6] = Sub-acute toxicity in albino Wistar rat assessed as effect on food intake at 1.25 to 10 mg/kg, po administered for 28 days measured post last dose; format: organism-based; conditions: in vivo, 672 h
[7] = Sub-acute toxicity in albino Wistar rat assessed as effect on water intake at 1.25 to 10 mg/kg, po administered for 28 days measured post last dose; format: organism-based; conditions: in vivo, 672 h
[8] = Sub-acute toxicity in albino Wistar rat assessed as change in colour at 1.25 to 10 mg/kg, po administered for 28 days; format: organism-based; conditions: in vivo, 672 h
[9] = Sub-acute toxicity in albino Wistar rat assessed as change in SOD level per mg protein at 2.5 mg/kg, po administered for 28 days measured post last dose (reference value: 4.85 +/- 0.34 U); format: organism-based; conditions: in vivo, 672 h
[10] = Sub-acute toxicity in albino Wistar rat assessed as adverse effect at 1.25 to 10 mg/kg, po administered for 28 days; format: organism-based; conditions: in vivo, 672 h
[11] = Sub-acute toxicity in albino Wistar rat assessed as effect on neurological changes at 1.25 to 10 mg/kg, po administered for 28 days; format: organism-based; conditions: in vivo, 672 h
[12] = Sub-acute toxicity in albino Wistar rat assessed as change in AST level at 10 mg/kg, po administered for 28 days measured post last dose (reference value: 25 +/- 1.76 U/L); format: organism-based; conditions: in vivo, 672 h
[13] = Sub-acute toxicity in albino Wistar rat assessed as effect on sleep at 1.25 to 10 mg/kg, po administered for 28 days; format: organism-based; conditions: in vivo, 672 h
[14] = Sub-acute toxicity in albino Wistar rat assessed as change in Urea level at 5 mg/kg, po administered for 28 days measured post last dose (reference value: 24.54 +/- 2.12 mg/dl); format: organism-based; conditions: in vivo, 672 h
[15] = Sub-acute toxicity in albino Wistar rat assessed as change in hemoglobin level at 1.25 mg/kg, po administered for 28 days measured post last dose (reference value: 12.14 +/- 1.45 g%); format: organism-based; conditions: in vivo, 672 h
[16] = Sub-acute toxicity in albino Wistar rat assessed as change in serum protein level at 1.25 mg/kg, po administered for 28 days measured post last dose (reference value: […]); format: organism-based; conditions: in vivo, 672 h
[17] = Sub-acute toxicity in albino Wistar rat assessed as diarrhea at 1.25 to 10 mg/kg, po administered for 28 days; format: organism-based; conditions: in vivo, 672 h
[18] = Sub-acute toxicity in albino Wistar rat assessed as change in hemoglobin level at 2.5 mg/kg, po administered for 28 days measured post last dose (reference value: 12.14 +/- 1.45 g%); format: organism-based; conditions: in vivo, 672 h
[19] = Sub-acute toxicity in albino Wistar rat assessed as change in serum protein level at 10 mg/kg, po administered for 28 days measured post last dose (reference value: […]); format: organism-based; conditions: in vivo, 672 h
[20] = Sub-acute toxicity in albino Wistar rat assessed as change in Urea level at 10 mg/kg, po administered for 28 days measured post last dose (reference value: 24.54 +/- 2.12 mg/dl); format: organism-based; conditions: in vivo, 672 h
[21] = Sub-acute toxicity in albino Wistar rat assessed as change in central nervous system at 1.25 to 10 mg/kg, po administered for 28 days; format: organism-based; conditions: in vivo, 672 h
[22] = Sub-acute toxicity in albino Wistar rat assessed as salivation at 1.25 to 10 mg/kg, po administered for 28 days; format: organism-based; conditions: in vivo, 672 h
[23] = Sub-acute toxicity in albino Wistar rat assessed as change in MDA level per mg protein at 10 mg/kg, po administered for 28 days measured post last dose (reference value: 0.91 +/- 0.1 nmol); format: organism-based; conditions: in vivo, 672 h
Dihydrofolate reductase = target: T1, Dihydrofolate reductase (Homo sapiens, UniProt P00374); test: Inhibition of human DHFR assessed as reduction in consumption of NADPH using DHF as substrate preincubated for 1 min followed by DHF addition and measured for 2 mins by spectrophotometric method
T1 sequence (P00374 whole entry): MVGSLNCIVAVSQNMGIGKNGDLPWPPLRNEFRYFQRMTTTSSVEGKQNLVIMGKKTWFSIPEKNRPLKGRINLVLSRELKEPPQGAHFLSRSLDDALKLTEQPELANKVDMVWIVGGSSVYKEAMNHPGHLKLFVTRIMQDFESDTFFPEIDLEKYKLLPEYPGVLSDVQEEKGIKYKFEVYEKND

[24] = Sub-acute toxicity in albino Wistar rat assessed as change in SOD level per mg protein at 10 mg/kg, po administered for 28 days measured post last dose (reference value: 4.85 +/- 0.34 U); format: organism-based; conditions: in vivo, 672 h

Q: With `CC(=O)c1c(C)n(Cc2ccccc2)c2ccc(OCc3cn(-c4ccc(Br)cc4)nn3)cc12` as the molecule, how does the Activity [1] read?
A: Non-Toxic

Q: And the Activity [2]?
A: 13.98 g%

Q: What about the Activity [3] of the same molecule?
A: 32.45 U

Q: And the Activity [4]?
A: 29.34 U

Q: And the Activity [5]?
A: 4.95 U

Q: What about the Activity [6] of the same molecule?
A: Non-Toxic

Q: What about the Activity [7] of the same molecule?
A: Non-Toxic

Q: And the Activity [8]?
A: Non-Toxic

Q: And the Activity [9]?
A: 5.01 U

Q: And the Activity [10]?
A: Non-Toxic

Q: What about the Activity [11] of the same molecule?
A: Non-Toxic

Q: And the Activity [12]?
A: 26.98 U/L

Q: And the Activity [13]?
A: Non-Toxic

Q: What about the Activity [14] of the same molecule?
A: 26.43 mg/dL

Q: And the Activity [15]?
A: 12.12 g%

Q: And the Activity [16]?
A: 6.65 mg/dL

Q: What about the Activity [17] of the same molecule?
A: Non-Toxic

Q: And the Activity [18]?
A: 12.83 g%

Q: What about the Activity [19] of the same molecule?
A: 7.76 mg/dL

Q: And the Activity [20]?
A: 27.54 mg/dL

Q: And the Activity [21]?
A: Non-Toxic

Q: What about the Activity [22] of the same molecule?
A: Non-Toxic

Q: And the Activity [23]?
A: 1.23 nmol

Q: What about the IC50 (Dihydrofolate reductase) of the same molecule?
A: 125 µM

Q: What about the Activity [24] of the same molecule?
A: 5.56 U

From ChEMBL document CHEMBL4480432, “Expansion of a novel lead targeting M. tuberculosis DHFR as antitubercular agents” (Bioorg Med Chem, 2019)
